Target: rabbit anti-M6G polyclonal antibody
Test: Cross-reactivity of the competitive M6G-ELISA (M6G-HRP tracer, biotinylated antibody)
Type: binding
Details: for Kd: approximate, calculated from Figure 1, competing compound diluted in NBCS at 1, 10, 100 or 1000 nM, one site competition model, read-out: affinity constant K; for K relative to M6G (X as high as M6G): ratio of the compound's K to the K of M6G
Method: The rabbit anti-M6G polyclonal antibody was biotinylated for the ELISA assay. After dialysis in buffer carbonate 100 mM pH 9, biotin-NHS dissolved in DMF was added to the antibody. After stirring for 30 min, the free biotin was removed by dialysis in PBS 11 mM pH 7.2. Aliquots of labeled antibody were frozen and stored at -20°C. Then, the biotinylated antibody was diluted at ELISA working concentration determined at 0.25µg.mL^-1 in PBS 11 mM pH 7.2 + 1% BSA, aliquoted and stored at -20°C.
96-well microplates were coated with 200 µL/well of a 10 µg.mL^-1 BSA-biotin solution in PBS and incubated for 24 h at room temperature. Then after aspiration 200 µL/well of 10 µg.mL^-1 of avidin solution in PBS were distributed and incubated for 24 h at room temperature. After washing with NaCl, Tween® 0.005%, 200 µL/well of saturation solution was added (PBS + 2% Sorbitol + 0.5% Glycine + 0.1% BSA + 0.065% NaN3) and incubated for 24 h at 4°C. After an aspiration, the microplates were dried at 20°C in a ventilated room for 12 h, packed with a dessicant and stored at 4°C.
A competitive assay format was used for the M6G-ELISA. 100 µL of biotinylated antibody were added and incubated for 2 h at room temperature under 400 rpm stirring. After incubation, the wells were emptied and 3 wash cycles with H2O + 0.05% Tween® were applied. 50 µL of calibrators, controls and samples were added in duplicate. If necessary, samples were prediluted in dilution buffer (PBS + 0.1% BSA), then 50 µL of M6G-HRP conjugate was distributed in all the wells and incubated for 2h at room temperature, under 400rpm stirring. After a final washing step, 100 µL of HRP substrate (TMB) were added, and incubated for 10 min at room temperature, under 400rpm stirring. The chromogenic reaction was stopped with 100 µL H2SO4 1 N, and the absorbance of each sample was determined at 450 nm and 620 nm (reference wavelength). The results were analyzed using GraphPad Prism Software, model one site competition.
The cross-reactivity of the assay described in example 5 with several compounds that are structurally close to M6G was evaluated. For this purpose, the assay was performed with 50 µL of samples constituted of competing compounds diluted in NBCS at the concentrations of: 1 nM, 10 nM, 100 nM or 1000 nM.

SMILES	Kd	K relative to M6G (X as high as M6G)
COc1ccc2c3c1O[C@H]1[C@@H](O)C=C[C@H]4[C@@H](C2)N(C)CC[C@@]341 [codeine, Codeine]	220 nM	35 X
CN1CC[C@]23c4c5ccc(O)c4O[C@H]2[C@@H](O[C@@H]2O[C@H](C(=O)O)[C@@H](O)[C@H](O)[C@H]2O)C=C[C@H]3[C@H]1C5 [M6G, Morphine-6-glucuronide]	5.9 nM	–
CN1CC[C@]23c4c5ccc(O[C@@H]6O[C@H](C(=O)O)[C@@H](O)[C@H](O)[C@H]6O)c4O[C@H]2[C@@H](O[C@@H]2O[C@H](C(=O)O)[C@@H](O)[C@H](O)[C@H]2O)C=C[C@H]3[C@H]1C5 [M3,6G, Morphine-3-6-diglucuronide]	3.4 nM	–
Oc1ccc2c3c1O[C@H]1[C@@H](O)C=C[C@H]4[C@@H](C2)NCC[C@@]341 [normorphine, Normorphine]	> 1000 nM	–
CN1CC[C@]23c4c5ccc(O[C@@H]6O[C@H](C(=O)O)[C@@H](O)[C@H](O)[C@H]6O)c4O[C@H]2[C@@H](O)C=C[C@H]3[C@H]1C5 [M3G, Morphine-3-glucuronide]	670 nM	more than 100 X
COc1ccc2c3c1O[C@H]1[C@@H](O)C=C[C@H]4[C@@H](C2)NCC[C@@]341 [norcodeine, Norcodeine]	> 1000 nM	–
